Measurements as given in patent EP0267050B1, “Aerosols containg liposomes and method for their preparation” (priority 1986, dated 1988).

How the values were obtained:
adrenergic = assay: Effects in vitro on muscle: receptor activation; design: species or system rats; settings: rat muscle in vitro, 10⁻⁵ to 10⁻⁸M
Protocol: (§1) Effects in vitro on muscle. Muscle from many organs of rats was tested with 10⁻⁵ to 10⁻⁸M enviroxime.

histamine = assay: Effects in vitro on muscle: receptor activation; design: species or system rats; settings: rat muscle in vitro, 10⁻⁵ to 10⁻⁸M
Protocol: as §1

prostaglandin E2 = assay: Effects in vitro on muscle: receptor activation; design: species or system rats; settings: rat muscle in vitro, 10⁻⁵ to 10⁻⁸M
Protocol: as §1

[1] = test system: Muscle from many organs of rats; assay: Effects in vitro on muscle: antagonism of dose response curves; settings: rat muscle in vitro, 10⁻⁵ to 10⁻⁸M; similar to that of potassium chloride
Protocol: as §1

[2] = Animal tolerance: effects on electrolytes and urine output; format: in vivo; settings: rats
From the text: Effects on electrolytes. […] The oliguria was associated with increases in potassium in serum but not sodium.

[3] = Animal tolerance: effects of oral doses in mice; format: in vivo
[4] = test system: primary antibody response; format: in vivo; settings: mice
[5] = Animal tolerance: cardiovascular effects in cats; format: in vivo
Protocol: (§2) Effects on cats and dogs. […] Plasma concentrations of enviroxime were 3.0, 8.9 and 19 µg/mL following these I.V. doses. Bioassay (antiviral) and biochemical assay of blood yielded similar results.

[6] = Animal tolerance: diastolic blood pressure in dogs; format: in vivo; settings: following 1, 3, and 10 mg/kg I.V. doses
Protocol: as §2

[7] = Plasma concentration after I.V. doses; format: in vivo, dogs
Protocol: as §2

rhinoviruses = settings: all rhinoviruses tested; generally range; cited from earlier work
polioviruses = settings: cited from earlier work
echoviruses = settings: cited from earlier work
coxsackieviruses = settings: cited from earlier work
cells in culture = settings: cited from earlier work
[8] = cited from earlier work
[9] = associated with the oliguria at 25 mg/kg and above

For `CC(C)S(=O)(=O)n1c(N)nc2ccc(/C(=N/O)c3ccccc3)cc21` [enviroxime], the “activation of adrenergic receptors” value (adrenergic) was “did not activate”, the “activation of histamine receptors” value (histamine) was “did not activate” and the “activation of prostaglandin E2 receptors” value (prostaglandin E2) was “did not activate”. For the same compound, the “antagonism of dose response curves” value [1] was “some non-competitive antagonism”, the potassium in serum [2, 9] was “increases” and the sodium in serum [2, 9] was “not”. For the same compound, the oliguria ([2]; dose of 25 mg/kg and above) was “significant oliguria”, the effects in mice ([3]; 50 mg/kg orally) was “no detectable effects” and the effects in mice ([3]; higher doses, 100-400 mg/kg) was “increasing leg weakness, decreased motor activity and gait disturbances”. For the same compound, the “onset of the effect of high doses” value ([3]; mice, high doses) was “within a few minutes”, the “tolerance of oral doses” value ([3]; oral doses up to 100 mg/kg, a number of other tests) was “well tolerated” and the “immune suppressive activity on primary antibody response” value [4] was “no immune suppressive activity”. For the same compound, the cardiovascular effects [5] was “no significant cardiovascular effects”, the diastolic blood pressure [6] was “some stepwise depression” and the Plasma concentrations ([7]; following 1 mg/kg I.V. dose) was 3000 ng/mL. For the same compound, the Plasma concentrations ([7]; following 3 mg/kg I.V. dose) was 8900 ng/mL, the Plasma concentrations ([7]; following 10 mg/kg I.V. dose) was 19000 ng/mL and the inhibitory concentrations (rhinoviruses) was 0.3 to 0.9 µg/mL. The activity against polioviruses (polioviruses) was “active”, the activity against echoviruses (echoviruses) was “active” and the activity against coxsackieviruses (coxsackieviruses) was “active”. The “Maximum tolerated concentrations for cells in culture” value (cells in culture) was 4 to 100 µg/mL and the soluble in water [8] was 1 to 2 µg/mL.
